# Values of other authors as cited in patent publication US20080146444A1, “Method and compositions for improving plant growth” (Polymer Ventures, Inc., priority 2006, published 2008).
# What was measured:
# Xylella fastidiosa = conditions: 62.5 ppm
# cucumber seed radicle = conditions: levels as low as 7-174 ppm (0.00002 M to 0.0005 M)
# plant = conditions: applied at 14 ppm to 1400 ppm (0.1-10 millimolar)
smiles,measurement,setting,value
CC(C)=CCCC(C)=CC=O [citral],kill of Xylella fastidiosa,Xylella fastidiosa,incomplete kill
CC(C)C1CCC(C)(O)C([N+](C)(C)C2CCCC2)C1.[Br-] (stereo not shown) [cyclopentyl dimethyl (1-hydroxy-p-menth-2-yl)ammonium bromide],cucumber seed radicle growth,cucumber seed radicle,inhibited
C=C(C)[C@H]1CC=C(C)CC1 [limonene],plant primary root growth,plant,no improvement
same,seed germination,plant,no improvement
